The NIST ThermoML archive (doi:10.1021/je800439e)
“And” between values parts separate entries of the source, which are not always exact repeats. Equal entries are not always repeated. Numbers after ± are expanded uncertainties.

How the values were obtained:
[1] = 101 kPa, Liquid
[2] = xn = mol fraction of the nth substance listed; conditions: 101 kPa, Liquid

Cc1c(C)c2c(c(C)c1O)CCC(C)(CCCC(C)CCCC(C)CCCC(C)C)O2 (racemic) [dl-α-tocopherol]
[1]
Conditions | viscosity
278.15 K | 37128 ± 10000 mPa·s
284.15 K | 15242 ± 3600 mPa·s
290.15 K | 6380 ± 1300 mPa·s and 6380.1 ± 1300 mPa·s
296.15 K | 3017.5 ± 510 mPa·s
302.15 K | 1531 ± 220 mPa·s
308.15 K | 814.81 ± 94 mPa·s
314.15 K | 454.58 ± 42 mPa·s
320.15 K | 283.56 ± 21 mPa·s
325.15 K | 187.51 ± 11 mPa·s
330.15 K | 129.2 ± 5.7 mPa·s
335.15 K | 92.65 ± 3 mPa·s
340.15 K | 67.32 ± 1.6 mPa·s
345.15 K | 49.98 ± 1.1 mPa·s
350.15 K | 37.4 ± 0.85 mPa·s

Cc1cc(C)cc(C)c1 [1,3,5-trimethylbenzene]
[1]
Conditions | viscosity [mPa·s]
278.15 K | 0.85 ± 0.03
284.15 K | 0.8 ± 0.03
290.15 K | 0.75 ± 0.03
296.15 K | 0.63 ± 0.03
302.15 K | 0.57 ± 0.03
308.15 K | 0.53 ± 0.03
314.15 K | 0.49 ± 0.03
320.15 K | 0.46 ± 0.03
325.15 K | 0.44 ± 0.02
330.15 K | 0.41 ± 0.02
335.15 K | 0.4 ± 0.02
340.15 K | 0.39 ± 0.02
345.15 K | 0.35 ± 0.02
350.15 K | 0.34 ± 0.02

Cc1cc(C)cc(C)c1 [1,3,5-trimethylbenzene] + Cc1c(C)c2c(c(C)c1O)CCC(C)(CCCC(C)CCCC(C)CCCC(C)C)O2
[2], x2 = 0
Conditions | viscosity [mPa·s]
278.15 K | 0.85 ± 0.02
284.15 K | 0.8 ± 0.02
290.15 K | 0.75 ± 0.02
296.15 K | 0.63 ± 0.02
302.15 K | 0.57 ± 0.02
308.15 K | 0.53 ± 0.01
314.15 K | 0.49 ± 0.01
320.15 K | 0.46 ± 0.01
325.15 K | 0.44 ± 0.01
330.15 K | 0.41 ± 0.01
335.15 K | 0.4 ± 0.01
340.15 K | 0.39 ± 0.01
345.15 K | 0.35 ± 0.01
350.15 K | 0.34 ± 0.01

CCCCCc1ccc(C2CCC(CCC)CC2)cc1 (stereo not given) [1-pentyl-4-(4-propylcyclohexyl)-benzene]
[1]
Conditions | viscosity [mPa·s]
278.15 K | 27.74 ± 0.39
284.15 K | 21.48 ± 0.31
290.15 K | 16.95 ± 0.24
296.15 K | 13.5 ± 0.19
302.15 K | 11.09 ± 0.15
308.15 K | 9.21 ± 0.13
314.15 K | 7.64 ± 0.1
320.15 K | 6.58 ± 0.09
325.15 K | 6.01 ± 0.08
330.15 K | 5.19 ± 0.07
335.15 K | 4.57 ± 0.06
340.15 K | 4.13 ± 0.06
345.15 K | 3.68 ± 0.05
350.15 K | 3.29 ± 0.05

CCCCCc1ccc(C2CCC(CCC)CC2)cc1 (stereo not given) [1-pentyl-4-(4-propylcyclohexyl)-benzene] + Cc1c(C)c2c(c(C)c1O)CCC(C)(CCCC(C)CCCC(C)CCCC(C)C)O2
viscosity [mPa·s], [2]
Conditions | x2 = 0 | x2 = 0.2058 | x2 = 0.4023 | x2 = 0.6026 | x2 = 0.8018
278.15 K | 27.74 ± 0.39 | 75.95 ± 4 | 384.28 ± 34 | 1270.6 ± 180 | 7471.9 ± 1600
284.15 K | 21.48 ± 0.31 | 53.48 ± 0.82 | 231.6 ± 15 | 794.38 ± 90 | 3488.2 ± 610
290.15 K | 16.95 ± 0.24 | 38.25 ± 0.65 | 145.52 ± 6.8 | 441.94 ± 40 | 1669.9 ± 240
296.15 K | 13.5 ± 0.19 | 28.1 ± 0.46 | 96.37 ± 3 | 266.41 ± 19 | 911.16 ± 110
302.15 K | 11.09 ± 0.15 | 21.57 ± 0.34 | 65.92 ± 1.3 | 163.27 ± 8.5 | 485.33 ± 46
308.15 K | 9.21 ± 0.13 | 16.8 ± 0.26 | 46.14 ± 0.84 | 106.33 ± 3.8 | 278.53 ± 20
314.15 K | 7.64 ± 0.1 | 13.17 ± 0.2 | 33.91 ± 0.58 | 71.05 ± 1.6 | 173.09 ± 9.4
320.15 K | 6.58 ± 0.09 | 10.98 ± 0.16 | 26.01 ± 0.43 | 51.66 ± 0.86 | 120.77 ± 4.9
325.15 K | 6.01 ± 0.08 | 9.33 ± 0.14 | 20.65 ± 0.34 | 39.36 ± 0.74 | 82.86 ± 2.4
330.15 K | 5.19 ± 0.07 | 7.98 ± 0.12 | 16.86 ± 0.27 | 30.2 ± 0.56 | 61.04 ± 1.2
335.15 K | 4.57 ± 0.06 | 6.85 ± 0.1 | 14.03 ± 0.22 | 24.08 ± 0.43 | 46.15 ± 0.93
340.15 K | 4.13 ± 0.06 | 6.04 ± 0.09 | 11.75 ± 0.19 | 19.47 ± 0.34 | 35.24 ± 0.7
345.15 K | 3.68 ± 0.05 | 5.37 ± 0.08 | 9.97 ± 0.16 | 16.1 ± 0.28 | 27.32 ± 0.53
350.15 K | 3.29 ± 0.05 | 4.7 ± 0.06 | 8.55 ± 0.13 | 13.3 ± 0.21 | 22.24 ± 0.39

Cc1c(C)c2c(c(C)c1O)CCC(C)(CCCC(C)CCCC(C)CCCC(C)C)O2 (stereo not drawn) [dl-α-tocopherol] + CCCCCc1ccc(C2CCC(CCC)CC2)cc1
[2], x1 = 1
Conditions | viscosity [mPa·s]
278.15 K | 37128 ± 10000
284.15 K | 15242 ± 3600
290.15 K | 6380 ± 1300
296.15 K | 3017.5 ± 510
302.15 K | 1531 ± 220
308.15 K | 814.81 ± 94
314.15 K | 454.58 ± 42
320.15 K | 283.56 ± 21
325.15 K | 187.51 ± 11
330.15 K | 129.2 ± 5.7
335.15 K | 92.65 ± 3
340.15 K | 67.32 ± 1.6
345.15 K | 49.98 ± 1.1
350.15 K | 37.4 ± 0.85

Cc1c(C)c2c(c(C)c1O)CCC(C)(CCCC(C)CCCC(C)CCCC(C)C)O2 (stereo not drawn) [dl-α-tocopherol] + Cc1cc(C)cc(C)c1
viscosity [mPa·s], [2]
Conditions | x1 = 0.2025 | x1 = 0.4036 | x1 = 0.5972 | x1 = 0.7955 | x1 = 1
278.15 K | 6.85 ± 1.6 | 148.08 ± 15 | 1253.6 ± 170 | 5944.7 ± 1200 | 37128 ± 10000
284.15 K | 5.55 ± 0.11 | 92.32 ± 3.1 | 658.51 ± 71 | 3037.6 ± 510 | 15242 ± 3600
290.15 K | 4.6 ± 0.08 | 56.98 ± 1.3 | 357.26 ± 30 | 1533.2 ± 220 | 6380.1 ± 1300
296.15 K | 3.88 ± 0.07 | 38 ± 0.82 | 210.82 ± 13 | 819.67 ± 95 | 3017.5 ± 510
302.15 K | 3.24 ± 0.06 | 26.65 ± 0.55 | 130.99 ± 5.8 | 477.36 ± 45 | 1531 ± 220
308.15 K | 2.94 ± 0.05 | 19.06 ± 0.38 | 83.96 ± 2.4 | 276.12 ± 20 | 814.81 ± 94
314.15 K | 2.39 ± 0.04 | 14.43 ± 0.27 | 55.52 ± 1.1 | 173.98 ± 9.5 | 454.58 ± 42
320.15 K | 2.14 ± 0.04 | 11.42 ± 0.21 | 40.57 ± 0.81 | 116 ± 4.6 | 283.56 ± 21
325.15 K | 1.96 ± 0.04 | 9.28 ± 0.17 | 30.55 ± 0.62 | 82.01 ± 2.3 | 187.51 ± 11
330.15 K | 1.83 ± 0.03 | 7.75 ± 0.14 | 23.73 ± 0.46 | 60.1 ± 1.2 | 129.2 ± 5.7
335.15 K | 1.72 ± 0.03 | 6.56 ± 0.12 | 18.89 ± 0.36 | 45.63 ± 0.95 | 92.65 ± 3
340.15 K | 1.65 ± 0.03 | 5.59 ± 0.1 | 15.33 ± 0.29 | 34.46 ± 0.72 | 67.32 ± 1.6
345.15 K | 1.52 ± 0.03 | 4.81 ± 0.09 | 12.33 ± 0.23 | 26.47 ± 0.53 | 49.98 ± 1.1
350.15 K | 1.37 ± 0.03 | 4.25 ± 0.08 | 10.5 ± 0.18 | 21.44 ± 0.4 | 37.4 ± 0.85
